This data set relates to high-fat-fed C57BL/6 mice. The experiment in a line: High-fat-diet C57BL/6 mice, Compound 1 7.5 mg/kg with antagomiR-control or antagomiR-122. Type of data set: in vivo. Here is the method: C57BL/6 mice were fed a 50% high fat diet (HFD) for four weeks. The control cohort received three hydrodynamic tail vein injections of a 5 μg antagomiR-control and six i.p injections of saline over three weeks. A second cohort was hydrodynamic tail vein injected with 5 μg antagomiR-122 (the reverse complement that inhibits activity of miR-122) three times and i.p injections of saline six times over three weeks. A third cohort was injected i.p. with Compound 1 (7.5 mg/kg) twice a week plus antagomiR-control once a week over the course of 3 weeks. The final cohort was injected i.p. with Compound 1 (7.5 mg/kg) twice a week plus antagomiR-122 injections once a week over the course of 3 weeks.
High Fat diet fed mice. C57BL/6 male mice were fed for 8 weeks a 50% high fat diet (Envigo, DIETTD150235). All mice were kept in a pathogen-free facility, under a 12 h light/dark cycle. Research on mice was approved by the Hebrew University Institutional Animal Care and Ethics Committee.
Compound 1 and AntagomiR injections to mice. C57BL/6 male mice, 7-8 weeks old, or Sgp130FC, 9-month-old male mice, were injected i.p. with 7.5 mg/kg Compound 1 dissolved in saline and 3% DMSO. Saline was injected as control. Mice were hydrodynamic tail vain injected with antagomiR-122 or antagomiR-control (negative control) (5 μg/mouse in 1.5 ml saline). Mice were sacrificed according to the legend of the figure describing the experimental results and the livers, white adipose and skeletal muscle tissues were frozen in liquid nitrogen or in OCT embedded frozen blocks, for further RNA and histologic analysis. AntagomiRs were obtained from Sigma Aldrich, see Table 3.
Triglycerides and β-hydroxybutyrate quantification. To determine the liver and muscle lipid content, muscle and liver tissues (40-80 mg) were homogenized in 0.5 ml of chloroform: Tris solution (v/v, 1:1), the homogenate was transferred to 1 ml of chloroform: methanol solution (v/v, 2:1) centrifuged at 3000 rpm for 10 min. The organic phase was mixed with 5% Triton X100 in chloroform, dried and re-dissolved in water. After lipid extraction, TG concentration in samples was measured with Triglyceride Quantification Kit (BioVision), according to the manufactures instructions. β-hydroxybutyrate was determined utilizing commercial colorimetric kits (BioVision) directly from plasma samples.
In an effort to determine whether the mechanism of action of miR-122 and Compound 1 are aligned at the same pathway, an experiment was designed in which both molecules, together and each separately, were administered. In this study, mice were fed with a 50% HFD and therapy was initiated 4 weeks after the animals were already on a diet, to establish NASH prior to treatment. Therapies (antagomiRs given once a week, due to a prolonged half time, and RS twice weekly, due to a plasma t/2 of 2.7 hrs) were initiated after 4 weeks and given for 3 weeks. The mice were weighed from week 3 and therapies initiated a week later. […] The liver was further analyzed to assess lipotoxicity. […] A surrogate marker for energy expenditure, β-hydroxybutyrate, was also measured. A reduction in energy expenditure is associated with reduced miR-122, and energy expenditure increased upon treating with Compound 1.
Male C57BL/6J mice, 7 to 8 weeks old, were housed randomly in standard cages and were fed a HFD, or atherogenic diet (consisting 1% Chol and 0.5% cholic acid, see also Table 3). All mice had free access to water during the experimental period. During the feeding period body weight was monitored every 3 days. In the HFD experiment, after 4 or 6 weeks, the resultant obese mice were treated with antagomiR-122 ([…] once a week for 3 weeks), or i.p. injected with Compound 1 (RORα agonist, 7.5 mg/kg twice a week for 3 weeks; or 15 mg/kg 3 times a week for 3 weeks). The obese control (HFD) group was administered only saline with DMSO and antagomiR-control. […]

As to “antagomiR-122: small synthetic RNA, 2'-O-Me/phosphorothioate modified, cholesterol-linked, reverse complement that inhibits activity of miR-122 (antisense ACAAACACCAUUGUCACAC; 2'-O-methyl, phosphorothioate, cholesterol-linked, pattern not given here) [reference compound]”, the final body weight (5 μg antagomiR hydrodynamic tail vein injection three times over three weeks, HFD) was 32 g. In addition, for the setting “50% HFD, treatment for 3 weeks”, the “TG content in the muscle” value is given as “increased”.

The values are drawn from patent publication US12318393B2, “Modulators of orphan nuclear receptors for NASH and other metabolic disorders” (Emory University, priority 2018, dated 2025).
